Read-outs that look alike come from different tables or passages of the source.
Assays:
locomotor activity = details: cited from earlier work
[1] = test system: locomotor activity in mice; experiment: Locomotor activity in mice, open field (Digiscan activity monitor); type: in vivo, mouse; details: for locomotor stimulation, in words: mice
Experimental: Adult male mice of the NIH (Swiss) strain weighing 25-30 g were housed in groups of 10 animals per cage with a light-dark cycle of 12:12 h. The animals were given free access to standard pellet food and water and were acclimatized to laboratory conditions for 24 h prior to testing. Each animal was used only once in the activity monitor.
Locomotor activity of individual animals was studied in an open field using a Digiscan activity monitor (Omnitech Electronics Inc., Columbus, Ohio) equipped with an IBM-compatible computer. The computer-tabulated measurements represent multivariate locomotor analysis with specific measures, such as simultaneous measurements of ambulatory, rearing, stereotypical, and rotational behaviors. Data were collected in the morning, for three consecutive intervals of 10 minutes each, and analyzed separately and as a group. Statistical analysis was performed using the Student t test. […] Drugs were administered i.p. in a volume corresponding to 5 ml/kg body weight. Where applicable, the antagonist was injected 10 minutes before the agonist. ED50 values were determined using regression analysis on the InPlot software (GraphPAD, San Diego, Calif.).

[2] = test system: rat brain A2a- vs. A1-receptors; details: cited from earlier work
[3] = target: T1, rat A1 cortical receptors (Rattus norvegicus, UniProt P25099); experiment: Radioligand binding, [3H]N6-phenylisopropyladenosine ([3H]PIA), rat cortical A1 receptors
T1 construct: Rat cerebral cortical membranes and striatal membranes were prepared; from tissue; host or cells: rat cerebral cortex membranes
T1 sequence (P25099 1-326): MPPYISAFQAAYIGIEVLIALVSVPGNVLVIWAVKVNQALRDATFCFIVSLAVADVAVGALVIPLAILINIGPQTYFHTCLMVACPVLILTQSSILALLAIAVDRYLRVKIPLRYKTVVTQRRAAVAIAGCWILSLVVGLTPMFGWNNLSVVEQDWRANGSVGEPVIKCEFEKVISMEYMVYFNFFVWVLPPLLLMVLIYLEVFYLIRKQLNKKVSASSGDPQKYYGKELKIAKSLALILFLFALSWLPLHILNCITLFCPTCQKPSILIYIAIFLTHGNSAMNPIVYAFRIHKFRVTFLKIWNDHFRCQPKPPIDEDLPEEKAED
Experimental: (§1) The 1,3,7-trialkyl-8-substituted xanthine compounds of the present invention were tested in a radioligand binding assay for affinity at adenosine receptors in rat brain membranes.
The final concentration of DMSO in the assay medium was generally 2%.
Membranes (~100 μg protein per tube) were incubated for 1.5 h at 37° C. in a total volume of 0.5 ml of 50 mM Tris hydrochloride, at pH 7.4. Test drugs were dissolved in DMSO and added in 10 μl aliquots, resulting in a final DMSO concentration of 2%. Bound and free radioligand were separated by addition of 3 ml of a buffer containing 50 mM Tris hydrochloride, pH 7.4, at 5° C., followed by vacuum filtration using a Brandel Cell Harvester (Brandel, Gaithersburg, Md.) and a Whatman GF/B glass fiber filter with additional washes totaling 9 ml of buffer. Non-specific binding was determined with 10 μM 2-chloroadenosine.
(§2) At least six different concentrations spanning three orders of magnitude, adjusted appropriately for the IC50 of each compound, were used.

[4] = test system: locomotor activity in mice; details: postinjection (Baumgold et al.); cited from earlier work
Aqueous solubility = details: injection vehicle
Experimental: To avoid precipitation associated with serial aqueous dilutions, the only point at which DMSO was added to aqueous medium was immediately prior to the incubation.

[5] = target: T2, A1 receptors, rabbit striatum (Oryctolagus cuniculus, UniProt P34970); experiment: Competition binding vs [3H]PIA, rabbit striatal membranes
T2 construct: Striatal tissue was isolated by dissection of rabbit, bovine, and rat brain; tissue Pel-Freeze Biologicals Co; host or cells: rabbit striatal membranes (frozen brain)
T2 sequence (P34970 whole entry): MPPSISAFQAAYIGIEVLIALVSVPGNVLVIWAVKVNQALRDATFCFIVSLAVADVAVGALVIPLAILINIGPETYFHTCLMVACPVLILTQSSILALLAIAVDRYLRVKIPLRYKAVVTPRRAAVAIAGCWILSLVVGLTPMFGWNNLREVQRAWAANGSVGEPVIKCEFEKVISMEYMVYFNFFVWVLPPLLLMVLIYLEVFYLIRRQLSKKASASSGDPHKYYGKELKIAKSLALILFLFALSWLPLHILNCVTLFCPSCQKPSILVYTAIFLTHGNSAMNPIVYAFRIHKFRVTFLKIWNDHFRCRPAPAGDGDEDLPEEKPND

[6] = target: A2a receptors, bovine striatum (Bos taurus, UniProt E1BKU0); experiment: biochemical
A2a receptors, bovine striatum, sequence (E1BKU0 1-401): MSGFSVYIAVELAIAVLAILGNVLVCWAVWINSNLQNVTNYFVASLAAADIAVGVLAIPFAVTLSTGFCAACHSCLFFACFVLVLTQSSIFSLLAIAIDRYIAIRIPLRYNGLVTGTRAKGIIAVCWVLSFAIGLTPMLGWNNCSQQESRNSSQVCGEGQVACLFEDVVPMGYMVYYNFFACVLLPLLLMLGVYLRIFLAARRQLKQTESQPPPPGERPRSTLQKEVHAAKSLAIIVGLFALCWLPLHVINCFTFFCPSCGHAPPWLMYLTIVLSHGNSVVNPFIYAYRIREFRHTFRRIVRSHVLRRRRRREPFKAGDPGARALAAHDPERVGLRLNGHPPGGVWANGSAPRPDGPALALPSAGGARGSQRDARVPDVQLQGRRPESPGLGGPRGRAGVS

[7] = target: T3, rat striatal A2a receptors (Rattus norvegicus, UniProt P30543)
T3 sequence (P30543 whole entry): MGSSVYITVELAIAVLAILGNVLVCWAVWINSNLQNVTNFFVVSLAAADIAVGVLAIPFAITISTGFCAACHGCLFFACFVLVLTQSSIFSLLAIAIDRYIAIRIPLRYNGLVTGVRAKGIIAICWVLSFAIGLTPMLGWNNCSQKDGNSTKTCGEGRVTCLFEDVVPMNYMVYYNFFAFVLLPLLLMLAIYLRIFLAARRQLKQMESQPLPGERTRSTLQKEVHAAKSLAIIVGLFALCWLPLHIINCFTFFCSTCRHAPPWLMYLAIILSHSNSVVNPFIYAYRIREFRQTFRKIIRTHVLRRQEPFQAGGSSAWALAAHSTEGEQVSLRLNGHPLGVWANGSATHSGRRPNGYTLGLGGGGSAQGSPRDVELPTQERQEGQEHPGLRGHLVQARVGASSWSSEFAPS

[8] = target: T4, A1 receptors, bovine striatum (Bos taurus, UniProt P28190); experiment: Competition binding vs [3H]PIA, bovine striatal membranes
T4 construct: Striatal tissue was isolated by dissection of rabbit, bovine, and rat brain; tissue Pel-Freeze Biologicals Co; host or cells: bovine striatal membranes (frozen brain)
T4 sequence (P28190 whole entry): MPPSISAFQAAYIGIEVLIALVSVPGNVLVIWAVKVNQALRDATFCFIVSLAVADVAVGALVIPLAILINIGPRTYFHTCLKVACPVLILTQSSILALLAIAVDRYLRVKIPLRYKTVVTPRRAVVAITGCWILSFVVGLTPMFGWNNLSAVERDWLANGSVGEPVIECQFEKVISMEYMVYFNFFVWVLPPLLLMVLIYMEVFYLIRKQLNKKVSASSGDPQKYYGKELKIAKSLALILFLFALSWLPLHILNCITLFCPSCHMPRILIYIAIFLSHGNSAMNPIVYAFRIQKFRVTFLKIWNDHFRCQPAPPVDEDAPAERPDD

[9] = target: T5, A1 receptors, rat striatum (Rattus norvegicus, UniProt P25099); experiment: Competition binding vs [3H]PIA, rat striatal membranes
T5 construct: Striatal tissue was isolated by dissection of rabbit, bovine, and rat brain; tissue Pel-Freeze Biologicals Co; host or cells: rat striatal membranes (frozen brain)
T5 sequence (P25099 1-326): T1 sequence (P25099 1-326)

rabbit A2a receptors = rabbit A2a receptors (Oryctolagus cuniculus, UniProt G1SVQ2); experiment: biochemical
rabbit A2a receptors, sequence (G1SVQ2 1-409): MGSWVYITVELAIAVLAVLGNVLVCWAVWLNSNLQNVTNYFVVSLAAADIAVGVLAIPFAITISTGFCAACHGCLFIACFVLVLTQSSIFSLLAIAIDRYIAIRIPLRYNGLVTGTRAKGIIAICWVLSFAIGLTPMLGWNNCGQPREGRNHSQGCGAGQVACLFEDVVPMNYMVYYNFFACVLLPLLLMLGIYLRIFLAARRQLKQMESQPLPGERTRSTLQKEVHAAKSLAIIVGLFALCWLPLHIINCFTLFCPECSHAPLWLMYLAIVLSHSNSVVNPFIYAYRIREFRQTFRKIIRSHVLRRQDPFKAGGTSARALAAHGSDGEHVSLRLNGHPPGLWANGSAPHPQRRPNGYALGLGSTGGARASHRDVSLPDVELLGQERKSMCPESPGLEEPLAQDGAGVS

[10] = target: T3, rat striatal A2a receptors; experiment: biochemical
[11] = target: T6, A1 receptors, guinea pig striatum (Cavia porcellus, UniProt P47745); experiment: Competition binding vs [3H]PIA, guinea pig striatal membranes
T6 construct: guinea pig, bovine, and rabbit striatal membranes; tissue Keystone Biologicals; host or cells: guinea pig striatal membranes (frozen brain)
T6 sequence (P47745 whole entry): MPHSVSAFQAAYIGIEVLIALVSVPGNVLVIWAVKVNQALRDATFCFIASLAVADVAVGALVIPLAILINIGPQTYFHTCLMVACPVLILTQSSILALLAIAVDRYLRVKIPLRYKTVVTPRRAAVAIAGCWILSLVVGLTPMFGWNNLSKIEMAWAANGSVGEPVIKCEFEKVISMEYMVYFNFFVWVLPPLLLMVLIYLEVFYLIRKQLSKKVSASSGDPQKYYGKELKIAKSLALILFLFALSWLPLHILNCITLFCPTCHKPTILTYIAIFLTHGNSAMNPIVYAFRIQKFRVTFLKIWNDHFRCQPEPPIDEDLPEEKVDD

bovine A2a receptors = bovine A2a receptors (Bos taurus, UniProt E1BKU0); experiment: biochemical
bovine A2a receptors, sequence (E1BKU0 1-401): as the sequence (E1BKU0 1-401) above

[12] = test system: A1 receptors, rat striatal membranes; experiment: Irreversible inhibition after preincubation and washing, [3H]PIA, rat striatal membranes; type: binding; details: preincubation with 20 μM ISC, 60 min
Experimental: Striatal membranes were treated with inhibitor as follows.

[13] = target: A2a receptors, rabbit striatum (Oryctolagus cuniculus, UniProt G1SVQ2); experiment: biochemical
A2a receptors, rabbit striatum, sequence (G1SVQ2 1-409): as the sequence (G1SVQ2 1-409) above

[14] = target: T3, rat striatal A2a receptors; experiment: Radioligand binding, [3H]CGS 21680, rat striatal A2a receptors; design: Rat cerebral cortical membranes and striatal membranes were prepared; from tissue; host or cells: rat striatal membranes
Experimental: as §1
The stock solutions were diluted with DMSO to a concentration of ≥0.1 mM prior to adding to the aqueous medium. The final concentration of DMSO in the assay medium was generally 2%.
Test drugs were dissolved in DMSO and added in 10 μl aliquots, resulting in a final DMSO concentration of 2%. Non-specific binding was defined using 20 μM 2-chloroadenosine. Filtration was carried out using a Brandel Cell Harvester, as above, using Tris HCl/MgCl2 as the washing buffer.
as §2

[15] = target: T7, A2a receptors, rat striatum (Rattus norvegicus, UniProt P30543); experiment: biochemical
T7 sequence (P30543 whole entry): as the sequence (P30543 whole entry) above

[16] = target: T7, A2a receptors, rat striatum; details: four species (rat, guinea pig, bovine, rabbit)
[17] = target: A1 receptors, guinea pig brain; details: vs [3H]CHA in guinea pig brain; read-out: Ki (A1), Shimada et al.; cited from earlier work
[18] = target: A2 receptors, rat striatum; details: vs [3H]NECA in rat striatum; read-out: Ki (A2a), Shimada et al.; cited from earlier work
A2 receptors, rat brain = details: read-out: Ki (A2a), Erickson et al.; cited from earlier work
[19] = target: T7, A2a receptors, rat striatum; experiment: Radioligand binding vs [3H]N-ethylcarboxamidoadenosine, rat striatum; design: Striatal tissue was isolated by dissection of rabbit, bovine, and rat brain; tissue Pel-Freeze Biologicals Co; host or cells: rat striatal membranes (frozen brain); details: Table VI; vs [3H]NECA; read-out: Inhibition of binding (Ki), rat striatum A2a
[20] = target: T8, A2a receptor, rat pheochromocytoma (PC12) cells (Rattus norvegicus, UniProt P30543); experiment: biochemical; details: Table VI; read-out: Adenylate cyclase (KB), rat PC12 cells A2a
T8 construct: via an A2a receptor in rat pheochromocytoma (PC12) cell membranes; endogenous in cells; host or cells: PC12 cells (rat pheochromocytoma)
T8 sequence (P30543 whole entry): as above

[21] = target: T9, A2a receptor, human platelets (Homo sapiens, UniProt P29274); experiment: Antagonism of NECA-elicited stimulation of adenylate cyclase, human platelets; type: biochemical
T9 construct: PC12) cell membranes or in human platelets; from tissue; host or cells: human platelets
T9 sequence (P29274 whole entry): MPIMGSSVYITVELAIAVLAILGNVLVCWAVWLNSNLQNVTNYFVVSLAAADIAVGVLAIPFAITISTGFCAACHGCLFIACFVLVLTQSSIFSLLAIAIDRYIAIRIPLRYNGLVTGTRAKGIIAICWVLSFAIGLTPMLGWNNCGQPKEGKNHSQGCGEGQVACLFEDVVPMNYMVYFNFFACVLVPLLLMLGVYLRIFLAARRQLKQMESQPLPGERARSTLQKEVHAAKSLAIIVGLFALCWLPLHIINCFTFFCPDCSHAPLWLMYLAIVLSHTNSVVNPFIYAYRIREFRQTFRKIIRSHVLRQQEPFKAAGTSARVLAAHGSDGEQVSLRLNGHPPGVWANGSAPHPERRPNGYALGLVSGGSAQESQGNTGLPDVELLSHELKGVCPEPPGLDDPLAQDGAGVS

[22] = target: A1 receptor, rat adipocytes (Rattus norvegicus, UniProt P25099); experiment: biochemical
Experimental: KB values were calculated using the Schild equation from the ratio of EC50 values for agonist in the presence and absence of antagonist.

[23] = Table VI, vs [3H]PIA, read-out: Inhibition of binding (Ki), rat cortex A1
[24] = Table I, vs [3H]PIA (1 nM), rat A1 receptors, read-out: Ki (A1)

Question: Which results are given for CCNC(=O)[C@H]1O[C@@H](n2cnc3c(N)nc(NCCc4ccc(CCC(=O)NCCN)cc4)nc32)[C@H](O)[C@@H]1O [APEC, 2-[(2-aminoethylamino)-carbonylethylphenylethylamino]-5'-N-ethylcarboxamidoadenosine, reference compound]?
Answer: ED50 for locomotor depression (locomotor activity; i.p., previously determined): 0.016 mg/kg; total distance traveled ([1]; APEC alone 16 μg/kg, n=13): 2277±229 cm/30 min; ED50 for locomotor depression elicited by APEC ([1]; following 1 mg/kg CSC): 0.19 mg/kg

Question: For Nc1nc2ccc(Cl)cc2n2c(-c3ccccc3)nnc12 [CP66,713], which “effect on A1 depression of locomotor activity” value (locomotor activity; in vivo, same dose) is on record?
Answer: Its value is “no effect on A1 depression of locomotor activity”.

Question: What about the “antagonism of A2 depression of locomotor activity” value (locomotor activity; in vivo) of the same compound?
Answer: Its value is “partial antagonism of A2 depression of locomotor activity”.

Question: And the “selectivity A2a vs. A1” value [2]?
Answer: The value was 12 fold.

Question: With Cn1c(=O)c2[nH]c(C3CCCC3)nc2n(C)c1=O [CPT, 8-cyclopentyltheophylline, reference compound] as the compound, how does the “locomotor stimulation, in words” value [1] read?
Answer: Its value is “moderate, but transient, locomotor stimulation”.

Question: What about the Behavioral stimulation ([1]; typical dose 10 (mg/kg, i.p.)) of the same compound?
Answer: Its Behavioral stimulation is “++”.

Question: And the Ki [3, 23]?
Answer: Its Ki is 24 nM.

Question: What about the “time until stimulatory effect disappears” value [4] of the same compound?
Answer: Its value is no more than 20 min.

Question: For Cn1c(=O)c2c(nc(/C=C/c3cccc(Cl)c3)n2C)n(C)c1=O [Compound 28a, 1,3,7-trimethyl-8-(3-chlorostyryl) xanthine], which “increase in clockwise and anti-clockwise rotations” value [1] is on record?
Answer: Its value is 30-60%.

Question: What about the “effect on locomotor activity of concurrent administration” value ([1]; APEC 16 μg/kg with CSC 5 mg/kg) of the same compound?
Answer: The value was “no effect on the locomotor activity”.

Question: What about the “reversal of APEC-elicited locomotor depression” value ([1]; CSC 1 mg/kg i.p., APEC 16 μg/kg) of the same compound?
Answer: The value was “nearly completely reverse the locomotor depression”.

Question: What about the total distance traveled ([1]; CSC 1.0 mg/kg with CPX […], n=9) of the same compound?
Answer: Its total distance traveled is 4861±243 cm/30 min.

Question: And the “stimulation of locomotor activity over CSC alone” value ([1]; CSC 1.0 mg/kg with CPX […], p<0.001)?
Answer: Its value is 37%.

Question: What about the total distance traveled ([1]; CSC 5 mg/kg alone, n=13) of the same compound?
Answer: Its total distance traveled is 4223±496 cm/30 min.

Question: What about the “increase in locomotor activity versus APEC alone” value ([1]; CSC 5 mg/kg with APEC 16 μg/kg) of the same compound?
Answer: Its value is 73%.

Question: What about the total distance traveled ([1]; CSC 5 mg/kg with APEC 16 μg/kg, n=14) of the same compound?
Answer: Its total distance traveled is 3949±284 cm/30 min.

Question: And the total distance traveled ([1]; CSC 5 mg/kg with CHA, n=8)?
Answer: Its total distance traveled is 2029±250 cm/30 min.

Question: What about the “locomotor stimulation over vehicle control” value ([1]; CSC 5 mg/kg, 30 min) of the same compound?
Answer: The value was 22%.

Question: What about the “effect on locomotor depression elicited by CHA” value ([1]; CSC 5 mg/kg, CHA 100 μg/kg i.p.) of the same compound?
Answer: The value was “no effect on locomotor depression”.

Question: And the “increase in locomotor activity versus control” value ([1]; CSC 5 mg/kg, last 10 minutes of 30 min)?
Answer: Its value is 56%.

Question: And the total distance traveled ([1]; CSC alone 1 mg/kg i.p., n=19)?
Answer: Its total distance traveled is 3550±230 cm/30 min.

Question: And the “increase in average distance per move” value ([1]; CSC with CPX)?
Answer: The value was “approximately 30%”.

Question: What about the “locomotor stimulation, in words” value [1] of the same compound?
Answer: The value was “no significant effect on locomotor activity”.

Question: And the Behavioral stimulation ([1]; typical dose 5 (mg/kg, i.p.))?
Answer: The Behavioral stimulation was “+”.

Question: What about the solubility (Aqueous solubility) of the same compound?
Answer: Its solubility is less than 1000 µg/mL.

Question: Which results are given for Cn1c(=O)c2c(nc(/C=C/c3cccc(N=C=S)c3)n2C)n(C)c1=O [Compound 28e, 1,3,7-trimethyl-8-(3-isothiocyanatostyryl)xanthine]?
Answer: IC50 [5]: 75600 nM; IC50 [6]: 516 ± 64 nM; time for inhibition of 50% of final value at 2 h ([7]; 2 μM ISC, 25° C.): Approximately 3 min; regeneration of A2a-receptor binding ([7]; IBMX 100 μM overnight on ISC-treated membranes): did not regenerate any A2a -receptor binding; Ki [3]: 20300 nM; IC50 [8]: 63400 nM; IC50 ([9]; IC50 (A1), rat, vs [3H]PIA (1 nM)): 42600 nM; IC50 ([9]; IC50 at A1-receptors, rat striatum): 43000 nM; Ki ([9]; Ki value (A1), rat striatum, Table V footnote b): 20300 nM; Ki ([9]; Ki value at A1-receptors, rat striatum): 20000 nM; EC50 (rabbit A2a receptors): 10000 nM; IC50 [10]: 2700 nM; inhibition at 20 µM ([10]; 1 h, read-out: loss of specific [3H]CGS 21680 binding, preincubation with 20 μM ISC, rat): ~80%; inhibition at 2 µM ([10]; 2 h, read-out: loss of specific [3H]CGS 21680 binding at 2 h, 2 μM ISC, 25° C.): ~55%; IC50 [11]: 51400 nM; EC50 (bovine A2a receptors): 8000 nM; loss of [3H]PIA binding [12]: 12±2.9%; IC50 [13]: 413 ± 135 nM; Ki [13]: 347 ± 112 nM; Ki ([14]; Ki (A2a)): 111 ± 1 nM; IC50 [15]: 146 nM; Ki [15]: 111 nM; Hill coefficients for displacement of [3H]CGS 21680 [16]: ~1

Question: For COc1cc(/C=C/c2nc3c([nH]2)c(=O)n(C)c(=O)n3C)cc(OC)c1OC [Compound 44a], which Ki [3, 24] is on record?
Answer: Its Ki is 2280 nM.

Question: What about the Ki [17] of the same compound?
Answer: The Ki was greater than 100000 nM.

Question: What about the Ki [18] of the same compound?
Answer: The Ki was 71 nM.

Question: With COc1cc(/C=C/c2nc3c(c(=O)n(C)c(=O)n3C)n2C)cc(OC)c1OC [Compound 44b, 1,3,7-trimethyl-8-(3,4,5-trimethoxy)-styryl-xanthine] as the compound, how does the Ki [3, 24] read?
Answer: The Ki was 9200 nM.

Question: What about the Ki [17] of the same compound?
Answer: Its Ki is greater than 100000 nM.

Question: And the Ki [18]?
Answer: The Ki was 18 nM.

Question: With C=CCn1c(=O)c2c(nc(/C=C/c3cc(OC)c(OC)c(OC)c3)n2C)n(CC=C)c1=O [Compound 46] as the compound, how does the Ki [3, 24] read?
Answer: Its Ki is 1930 nM.

Question: And the Ki [17]?
Answer: The Ki was greater than 100000 nM.

Question: And the Ki [18]?
Answer: Its Ki is 15 nM.

Question: What does the source list for CCCn1c(=O)c2[nH]c(/C=C/c3ccccc3)nc2n(CCC)c1=O [Compound 47]?
Answer: Ki (A2 receptors, rat brain): 85 nM; Ki [17]: 1800 nM; Ki [18]: 26 nM; Ki ([14]; Table I, vs [3H]CGS21680 (5 nM), rat striatal A2 receptors, read-out: Ki (A2a)): 44 ± 19 nM

Question: Which Ki [3, 24] does the source give for CCCn1c(=O)c2[nH]c(/C=C/c3ccc(OC)c(OC)c3)nc2n(CCC)c1=O [Compound 52a] here?
Answer: Its Ki is 71 ± 11 nM.

Question: And the Ki [17]?
Answer: The Ki was 1700 nM.

Question: And the Ki [18]?
Answer: The Ki was 6700 nM.

Question: What does the source list for C#CCn1c(=O)c2c(ncn2C)n(C)c1=O [DMPX, 3,7-dimethyl-1-propargylxanthine]?
Answer: Ki [19]: 16000 nM; Kb [20]: 9600 nM; Behavioral stimulation ([1]; typical dose 10 (mg/kg, i.p.)): +++; Kb [21]: 4000 nM; Ki [3, 23]: 45000 nM; Kb [22]: 94000 nM

Source: patent publication US5861405A, “S-substituted 1,3,7-trialkyl-xanthine derivatives” (priority 1994, dated 1999)
